# Read-outs that look alike come from different tables or passages of the source.
# Assays:
# [1] = Stability by mass spectrometry at physiological pH; type: physicochemical; details: pH 7.0, over 72 h
# [2] = Solubility in aqueous media; type: physicochemical; details: needs 10% DMSO in saline to fully dissolve
# [3] = test system: SVG p12 normal glial cells
# [4] = test system: SVG p12 normal glial cells; assay: cells; details: Homo sapiens
# U87 MG cells = assay: cells; type: cell-based, human; details: Homo sapiens, U-87 MG, U87 MG
# Procedure: In this procedure, U87 MG (2 × 10^4 cells per well) were seeded in BD falcon transparent 96-well plates and incubated for 24 h.
Compound,release of copper or platinum (mass spectrometry) [1],solubility in aqueous media [2],EC50 [3],"EC50 ([4]; SVGp12, 24 h, read-out: EC50 24 h SVG p12)","EC50 ([4]; SVGp12, 48 h, read-out: EC50 48 h SVG p12)","EC50 (U87 MG cells; 24 h, read-out: EC50 24 h U87 MG)","EC50 (U87 MG cells; 48 h, read-out: EC50 48 h U87 MG)","EC50 (U87 MG cells; 72 h, read-out: EC50 72 h U87 MG)"
"N=C(N)NCCC[C@@H]1NC(=O)[C@H](CCCCNC(=O)[C@H](CCCCNC(=O)c2cc(-c3ccccn3)nc(-c3ccccn3)c2)NC(=O)COCCOCCNC(=O)CN2CCN(CC(=O)O)CCN(CC(=O)O)CC2)NC(=O)[C@@H](Cc2ccccc2)NC(=O)[C@H](CC(=O)O)NC(=O)CNC1=O [^natCu-NOTA-TP-c(RGDfK), metal not drawn]",no detectable release of copper or platinum,limited solubility in aqueous media,,,,,,
Cn1nnc2c(C(N)=O)ncn2c1=O [Temozolomide],,,72 ± 5 µM,80 ± 10 µM,76 ± 7 µM,800 ± 11 µM,580 ± 8 µM,575 ± 6 µM

# Reference: paper PMC12384813
